From US9371337B2, “β-lactamase inhibitors” (The Regents of the University of California, priority 2011, dated 2016)
Where two headings read alike, the source gives them in different places.

Biological target: T1, AmpC β-lactamase (Escherichia coli, UniProt P00811)
T1 construct: made in house
Assay: biochemical
Format: biochemical
Method: FIG. 18. Representative IC50 curves. […] IC50 curves were obtained by measuring rates (in duplicates) at different inhibitor concentrations (x-axis) and by determining the residual activity (y-axis, in percentage). IC50 values were determined by non-linear regression and Ki values calculated using GraphPad software assuming competitive inhibition.
Sulfonamidomethaneboronic acids were dissolved in 100% DMSO at a concentration of 100 mM; more diluted stocks were prepared as necessary. […] The enzyme was expressed and purified as described (Usher, K. C. et al., Biochemistry 1998, 37, 16082-16092) and CENTA was purchased from Tydock Pharma.
Kinetic measurements were run at room temperature in 50 mM sodium-cacodylate pH 6.5 in the presence of 0.01% Triton-X to prevent non-specific inhibition via compound aggregation. […] (Kettner, C. A. and Shenvi, A. B., J. Biol. Chem. 1984, 259, 15106-15114) Reactions were performed in 1 mL cuvettes with 60 μM CENTA and initiated by adding 1.2 nM enzyme. […] (Weston, G. S. et al., J. Med. Chem. 1998, 41, 4577-4586) The first 180 sec of each reaction were used to measure initial rates. IC50 values were obtained by fitting binding data to a sigmoidal dose-response equation using GraphPad Prism (GraphPad software, Inc). Ki values were determined by the use of Cheng-Prusoff equation. (Cheng, Y. and Prusoff, W. H., Biochem. Pharmacol. 1973, 22, 3099-3108)

T1 sequence (P00811 20-377): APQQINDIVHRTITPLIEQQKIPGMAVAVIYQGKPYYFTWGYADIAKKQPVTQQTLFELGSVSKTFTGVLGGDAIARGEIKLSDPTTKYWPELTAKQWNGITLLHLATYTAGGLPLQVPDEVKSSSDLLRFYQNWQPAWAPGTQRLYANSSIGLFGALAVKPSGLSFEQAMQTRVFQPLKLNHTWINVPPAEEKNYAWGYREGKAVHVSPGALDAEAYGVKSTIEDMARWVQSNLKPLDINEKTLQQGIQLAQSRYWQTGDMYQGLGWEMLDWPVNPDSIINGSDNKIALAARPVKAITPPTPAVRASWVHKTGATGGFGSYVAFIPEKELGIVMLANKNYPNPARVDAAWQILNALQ

Compound | Ki (Ki Vs AmpC, Table 7) | Ki (Table 7, read-out: Ki Vs AmpC) | also measured
O=C(Cc1cccs1)N[C@H](B(O)O)c1cccc(C(=O)O)c1 [SM23, reference compound] |  |  | Ligand efficiency (Table 5): 0.55
CC(C)(C)N(CB(O)O)S(=O)(=O)Cc1ccccc1 [CR22] | 5100 nM |  | 
CS(=O)(=O)NCB(O)O [Compound 3, Pinacol(methanesulfonylamino)methaneboronate] |  |  | Ligand efficiency: 0.91; Ki (Ki vs AmpC, Table 8): 800 nM; improvement of potency compared to the carboxamide analog (ratio of Ki values): 23 fold; Ki (read-out: Ki): 789 nM
COC(=O)c1ccc(CS(=O)(=O)NCB(O)O)cc1 [Compound 8] |  | 120 nM | 
Cc1ccc(S(=O)(=O)N(CB(O)O)C(C)(C)C)cc1 [CR17] | 2500 nM |  | 
C[C@H](NS(C)(=O)=O)B(O)O [GBS32, (1R)-1-(Methylsulfonylamino)-1-ethaneboronic acid] | 650 nM |  | 
Cc1ccc(S(=O)(=O)N(C)CB(O)O)cc1 [CR14] | 630 nM |  | 
CC1(C)OB(c2ccccc2NS(C)(=O)=O)OC1(C)C [CR181, Pinacol 2-(methylsulfonylamino)phenylboronate] |  | 400 nM | 
O=[N+]([O-])c1cccc(CS(=O)(=O)NCB(O)O)c1 [Compound 6] |  | 189 nM | 
Pinacol(3-cyanopropane-1-sulfonylamino)methaneboronate [CR135] |  | 200 nM | 
N#Cc1ccc(S(=O)(=O)NCB(O)O)cn1 [CR163, [6-cyanopyridin-3-sulfonylamino]methaneboronic acid hydrocloride] | 270 nM |  | Ki (Ki vs AmpC, Table 8): 270 nM
